Laboratory results as given in article PMC8111447 (Frontiers in Pharmacology, 2021).

Experiments:
[1] = test system: NCI-H1975 (EGFR^L858R/T790M); experiment: Cell proliferation assay (CTG, 72 h); format: cell-based; conditions: Homo sapiens, NCI-H1975 cells, mean ± SD, n = 3
Protocol: (§1) Human lung cancer cell lines (NCI-H1975, H3255 and A431) were obtained from the American Type Culture Collection (ATCC), while PC-9 cell line was supplied by the European Collection of Authenticated Cell Cultures (ECACC). For in vivo implantation, NCI-H1975, H3255 and PC-9 cells were cultured in RPMI1640 (Invitrogen) supplemented with 10% v/v fetal calf serum (Sigma-Aldrich) and 2 mmol/L L-glutamine (Invitrogen). A431 cells were cultured in DMEM (Invitrogen) supplemented with 10% v/v fetal calf serum and 2 mmol/L v/v L-glutamine. All cell lines were then cultured in a humidified incubator with 5% CO2 at 37°C.
(§2) Test compounds were dissolved in DMSO as a 10 mmol/L stock solution. The initial concentration of compounds were 10 μmol/L and the 3-fold dilution was nine times. […] Plate was shaked for 2 min and the mixture was incubated at room temperature for 10 min.
(§3) The half-maximal inhibition concentration (IC50) values were processed by GraphPad Prism7 (GraphPad Software; La Jolla, CA).

A431 (EGFR^WT) = experiment: Cell proliferation assay (CTG, 72 h); format: cell-based; conditions: Homo sapiens, A-431, A431 cells, mean ± SD, n = 3
Protocol: as §1, §2, §3

MLCK(h) = target: T1, MLCK(h) (Homo sapiens, UniProt Q9H1R3); experiment: Kinase panel (Eurofins); format: biochemical; conditions: n = 2; for inhibition at 1 µM: at 1 μmol/L; for IC50: read-out: IC50 kinase inhibition
T1 construct: purchased Eurofins
From the text: (§4) These receptors have a methionine gatekeeper in their kinase domains, and are related to hyperglycemia in other clinical trials of EGFR TKI, such as Co-1686.

Mnk2(h) = target: T2, Mnk2(h) (Homo sapiens, UniProt Q9HBH9); experiment: Kinase panel (Eurofins); format: biochemical; conditions: n = 2; for inhibition at 1 µM: at 1 μmol/L; for IC50: read-out: IC50 kinase inhibition
T2 construct: purchased Eurofins
T2 sequence (Q9HBH9 whole entry): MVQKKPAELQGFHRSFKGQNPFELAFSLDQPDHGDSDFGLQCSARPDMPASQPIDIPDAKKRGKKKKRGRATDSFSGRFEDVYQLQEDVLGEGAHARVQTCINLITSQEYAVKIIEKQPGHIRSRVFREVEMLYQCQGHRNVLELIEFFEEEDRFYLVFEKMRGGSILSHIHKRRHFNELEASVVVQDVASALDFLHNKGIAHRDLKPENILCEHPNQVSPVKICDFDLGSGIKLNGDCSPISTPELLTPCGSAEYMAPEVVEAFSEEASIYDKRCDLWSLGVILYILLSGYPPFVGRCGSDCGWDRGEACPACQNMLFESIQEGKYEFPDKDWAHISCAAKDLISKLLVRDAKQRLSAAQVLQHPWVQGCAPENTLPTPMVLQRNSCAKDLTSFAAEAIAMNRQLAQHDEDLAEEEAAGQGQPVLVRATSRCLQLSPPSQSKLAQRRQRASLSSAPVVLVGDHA
From the text: as §4

IGF-1R(h), activated = target: T3, IGF-1R(h), activated (Homo sapiens, UniProt P08069); experiment: Kinase panel (Eurofins); format: biochemical; conditions: n = 2; for inhibition at 1 µM: at 1 μmol/L; for IC50: read-out: IC50 kinase inhibition
T3 construct: purchased Eurofins
T3 sequence (P08069 31-1367): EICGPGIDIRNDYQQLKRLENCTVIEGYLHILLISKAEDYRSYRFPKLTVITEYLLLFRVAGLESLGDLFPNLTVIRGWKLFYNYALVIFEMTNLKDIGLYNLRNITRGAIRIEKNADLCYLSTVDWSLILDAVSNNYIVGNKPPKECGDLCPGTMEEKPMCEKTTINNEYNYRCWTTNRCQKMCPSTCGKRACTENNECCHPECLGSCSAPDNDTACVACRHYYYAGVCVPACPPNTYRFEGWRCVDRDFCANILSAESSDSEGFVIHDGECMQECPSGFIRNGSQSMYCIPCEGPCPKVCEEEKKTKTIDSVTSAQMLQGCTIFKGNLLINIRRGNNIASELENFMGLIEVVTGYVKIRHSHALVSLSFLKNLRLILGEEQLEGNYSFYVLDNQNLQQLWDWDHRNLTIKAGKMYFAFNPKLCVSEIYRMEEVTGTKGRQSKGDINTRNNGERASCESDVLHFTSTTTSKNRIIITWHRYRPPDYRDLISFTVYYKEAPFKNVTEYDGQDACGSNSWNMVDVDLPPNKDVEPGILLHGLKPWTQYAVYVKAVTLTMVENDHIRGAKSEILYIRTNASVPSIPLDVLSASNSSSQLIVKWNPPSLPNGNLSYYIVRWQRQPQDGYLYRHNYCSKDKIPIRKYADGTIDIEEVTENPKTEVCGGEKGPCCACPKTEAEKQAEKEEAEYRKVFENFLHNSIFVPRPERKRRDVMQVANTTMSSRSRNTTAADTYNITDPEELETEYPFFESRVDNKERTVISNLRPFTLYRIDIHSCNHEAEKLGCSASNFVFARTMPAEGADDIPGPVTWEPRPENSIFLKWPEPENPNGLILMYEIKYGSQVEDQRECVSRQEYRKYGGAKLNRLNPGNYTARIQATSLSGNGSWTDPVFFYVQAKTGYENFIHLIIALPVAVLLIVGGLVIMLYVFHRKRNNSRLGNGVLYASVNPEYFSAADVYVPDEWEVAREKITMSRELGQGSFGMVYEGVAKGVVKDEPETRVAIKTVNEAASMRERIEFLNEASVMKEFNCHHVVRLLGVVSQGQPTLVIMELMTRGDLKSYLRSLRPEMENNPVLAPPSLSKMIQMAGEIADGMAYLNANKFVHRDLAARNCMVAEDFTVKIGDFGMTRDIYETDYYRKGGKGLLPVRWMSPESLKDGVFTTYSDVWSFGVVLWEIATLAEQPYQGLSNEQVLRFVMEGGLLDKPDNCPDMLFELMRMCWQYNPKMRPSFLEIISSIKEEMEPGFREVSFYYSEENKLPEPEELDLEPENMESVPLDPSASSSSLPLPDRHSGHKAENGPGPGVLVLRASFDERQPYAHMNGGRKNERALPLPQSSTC
From the text: as §4

Fes(h) = target: T4, Fes(h) (Homo sapiens, UniProt P07332); experiment: Kinase panel (Eurofins); format: biochemical; conditions: n = 2; for inhibition at 1 µM: at 1 μmol/L; for IC50: read-out: IC50 kinase inhibition
T4 construct: purchased Eurofins
T4 sequence (P07332 whole entry): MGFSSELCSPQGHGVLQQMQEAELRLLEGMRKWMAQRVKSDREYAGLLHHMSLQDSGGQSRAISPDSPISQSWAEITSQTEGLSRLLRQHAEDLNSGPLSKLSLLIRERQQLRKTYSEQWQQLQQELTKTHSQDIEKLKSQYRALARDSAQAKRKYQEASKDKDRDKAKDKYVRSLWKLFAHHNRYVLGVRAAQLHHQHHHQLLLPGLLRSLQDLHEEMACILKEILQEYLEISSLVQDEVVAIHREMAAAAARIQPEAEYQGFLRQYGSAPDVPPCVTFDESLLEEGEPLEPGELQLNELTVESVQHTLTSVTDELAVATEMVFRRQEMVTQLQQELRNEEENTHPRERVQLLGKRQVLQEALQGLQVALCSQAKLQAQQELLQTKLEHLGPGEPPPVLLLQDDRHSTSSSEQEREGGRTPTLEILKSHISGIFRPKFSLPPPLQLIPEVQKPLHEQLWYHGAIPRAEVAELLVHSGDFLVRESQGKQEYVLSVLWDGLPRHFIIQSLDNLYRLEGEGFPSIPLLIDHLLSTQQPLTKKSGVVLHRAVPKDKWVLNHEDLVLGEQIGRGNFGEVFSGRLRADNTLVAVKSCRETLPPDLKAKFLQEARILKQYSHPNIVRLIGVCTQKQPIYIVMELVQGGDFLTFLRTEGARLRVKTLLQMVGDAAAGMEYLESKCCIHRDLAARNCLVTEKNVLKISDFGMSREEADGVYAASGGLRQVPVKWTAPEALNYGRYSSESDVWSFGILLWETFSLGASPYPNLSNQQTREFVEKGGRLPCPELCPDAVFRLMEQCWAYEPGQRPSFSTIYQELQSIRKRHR
From the text: as §4

Flt4(h) = target: T5, Flt4(h) (Homo sapiens, UniProt P35916); experiment: Kinase panel (Eurofins); format: biochemical; conditions: n = 2; for inhibition at 1 µM: at 1 μmol/L; for IC50: read-out: IC50 kinase inhibition
T5 construct: purchased Eurofins
T5 sequence (P35916 25-1363): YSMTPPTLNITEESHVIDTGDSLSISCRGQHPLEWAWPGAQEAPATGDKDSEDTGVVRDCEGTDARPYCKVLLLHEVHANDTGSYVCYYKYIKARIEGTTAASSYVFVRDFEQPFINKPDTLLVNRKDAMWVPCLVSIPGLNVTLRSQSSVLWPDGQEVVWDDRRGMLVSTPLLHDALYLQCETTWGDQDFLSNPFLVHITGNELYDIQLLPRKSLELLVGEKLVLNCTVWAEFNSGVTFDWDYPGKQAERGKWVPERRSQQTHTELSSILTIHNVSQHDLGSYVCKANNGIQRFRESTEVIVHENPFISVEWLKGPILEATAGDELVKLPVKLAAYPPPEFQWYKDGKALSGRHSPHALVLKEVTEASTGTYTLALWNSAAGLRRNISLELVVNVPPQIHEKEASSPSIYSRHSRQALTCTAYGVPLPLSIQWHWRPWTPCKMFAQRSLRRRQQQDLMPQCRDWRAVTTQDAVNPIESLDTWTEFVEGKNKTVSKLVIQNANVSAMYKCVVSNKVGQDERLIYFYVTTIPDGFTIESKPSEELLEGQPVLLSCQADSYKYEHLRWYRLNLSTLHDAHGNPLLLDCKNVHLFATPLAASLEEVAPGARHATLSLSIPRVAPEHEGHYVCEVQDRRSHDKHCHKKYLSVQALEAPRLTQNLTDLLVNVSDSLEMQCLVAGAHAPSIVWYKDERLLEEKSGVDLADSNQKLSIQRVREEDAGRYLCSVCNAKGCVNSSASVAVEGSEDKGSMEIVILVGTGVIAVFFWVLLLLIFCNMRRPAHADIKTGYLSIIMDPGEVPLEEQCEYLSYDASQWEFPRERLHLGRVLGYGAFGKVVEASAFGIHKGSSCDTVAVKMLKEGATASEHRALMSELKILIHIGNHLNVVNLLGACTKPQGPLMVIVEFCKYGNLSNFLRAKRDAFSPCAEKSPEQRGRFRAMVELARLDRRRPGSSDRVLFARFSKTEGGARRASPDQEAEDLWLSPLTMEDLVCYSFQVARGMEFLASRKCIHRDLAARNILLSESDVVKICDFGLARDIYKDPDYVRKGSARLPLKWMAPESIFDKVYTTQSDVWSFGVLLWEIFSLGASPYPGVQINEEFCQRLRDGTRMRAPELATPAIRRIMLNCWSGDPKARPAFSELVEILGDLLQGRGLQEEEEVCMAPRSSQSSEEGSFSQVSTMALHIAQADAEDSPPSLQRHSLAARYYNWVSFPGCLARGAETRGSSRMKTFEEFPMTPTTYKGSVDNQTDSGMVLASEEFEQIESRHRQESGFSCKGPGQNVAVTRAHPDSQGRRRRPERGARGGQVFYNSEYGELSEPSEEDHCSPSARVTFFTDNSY
From the text: as §4

Itk(h) = target: T6, Itk(h) (Homo sapiens, UniProt Q08881); experiment: Kinase panel (Eurofins); format: biochemical; conditions: n = 2; for inhibition at 1 µM: at 1 μmol/L; for IC50: read-out: IC50 kinase inhibition
T6 construct: purchased Eurofins
T6 sequence (Q08881 1-620): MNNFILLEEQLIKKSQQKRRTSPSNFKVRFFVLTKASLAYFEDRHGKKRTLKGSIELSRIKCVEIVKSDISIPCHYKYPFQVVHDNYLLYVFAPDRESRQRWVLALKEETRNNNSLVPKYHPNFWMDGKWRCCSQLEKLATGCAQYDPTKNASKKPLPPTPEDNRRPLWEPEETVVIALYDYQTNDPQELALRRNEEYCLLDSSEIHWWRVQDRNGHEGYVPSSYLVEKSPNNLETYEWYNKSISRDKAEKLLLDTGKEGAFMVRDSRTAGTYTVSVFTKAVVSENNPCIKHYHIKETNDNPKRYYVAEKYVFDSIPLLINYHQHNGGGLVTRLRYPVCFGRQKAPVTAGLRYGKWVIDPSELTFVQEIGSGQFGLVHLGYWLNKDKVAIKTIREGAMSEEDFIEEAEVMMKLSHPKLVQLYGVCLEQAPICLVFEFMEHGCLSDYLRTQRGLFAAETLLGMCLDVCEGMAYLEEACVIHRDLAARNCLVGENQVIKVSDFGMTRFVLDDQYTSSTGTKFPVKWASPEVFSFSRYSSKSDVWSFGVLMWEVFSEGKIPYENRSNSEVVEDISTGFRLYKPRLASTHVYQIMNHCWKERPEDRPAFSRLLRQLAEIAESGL
From the text: as §4

LOK(h) = target: T7, LOK(h) (Homo sapiens, UniProt O94804); experiment: Kinase panel (Eurofins); format: biochemical; conditions: n = 2; for inhibition at 1 µM: at 1 μmol/L; for IC50: read-out: IC50 kinase inhibition
T7 construct: purchased Eurofins
T7 sequence (O94804 whole entry): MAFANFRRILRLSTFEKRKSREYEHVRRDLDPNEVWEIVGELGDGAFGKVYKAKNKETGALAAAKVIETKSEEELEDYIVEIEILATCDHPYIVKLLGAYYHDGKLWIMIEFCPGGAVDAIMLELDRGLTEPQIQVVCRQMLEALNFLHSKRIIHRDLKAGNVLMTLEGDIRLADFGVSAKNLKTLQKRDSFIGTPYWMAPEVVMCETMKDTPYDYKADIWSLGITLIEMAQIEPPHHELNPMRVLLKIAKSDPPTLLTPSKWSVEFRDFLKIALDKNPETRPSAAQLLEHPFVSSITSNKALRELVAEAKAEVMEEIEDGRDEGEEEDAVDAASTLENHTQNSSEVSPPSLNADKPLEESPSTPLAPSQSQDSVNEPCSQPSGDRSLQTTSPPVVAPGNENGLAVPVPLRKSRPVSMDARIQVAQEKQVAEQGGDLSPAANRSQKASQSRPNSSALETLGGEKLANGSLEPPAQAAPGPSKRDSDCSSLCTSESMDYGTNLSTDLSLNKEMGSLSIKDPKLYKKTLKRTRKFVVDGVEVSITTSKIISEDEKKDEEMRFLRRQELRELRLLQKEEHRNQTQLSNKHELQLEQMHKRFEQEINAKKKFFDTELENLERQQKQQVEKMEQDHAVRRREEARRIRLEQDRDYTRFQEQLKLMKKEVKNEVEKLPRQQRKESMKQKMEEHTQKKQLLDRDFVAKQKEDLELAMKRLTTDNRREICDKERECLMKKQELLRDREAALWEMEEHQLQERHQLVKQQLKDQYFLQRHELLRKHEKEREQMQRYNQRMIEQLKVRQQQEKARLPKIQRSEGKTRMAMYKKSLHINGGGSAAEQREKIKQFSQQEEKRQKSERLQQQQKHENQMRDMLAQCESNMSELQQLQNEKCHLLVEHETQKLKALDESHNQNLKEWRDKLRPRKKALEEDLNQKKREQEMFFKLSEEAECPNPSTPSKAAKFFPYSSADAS
From the text: as §4

EGFR^d746–750/T790M = EGFR^d746–750/T790M (Homo sapiens, UniProt P00533, DEL746-750/T790M); experiment: EGFR kinase inhibition assay (HTRF); format: biochemical; conditions: 30 μmol/L ATP, no pre-incubation, n = 3
Protocol: (§5) The sequence of the substrate is proprietary to CisBio. […] Kinase activity assays were performed in a total reaction volume of 3 μl per well. […] The substrate mixture (1.5 μl) consisted of 1 μmol/L TK substrate, 30 μmol/L ATP, 1 mmol/L DTT, and 10 mmol/L MgCl2. […] The plates were incubated for 1 h before being read on Pherastar using standard HTRF settings. […] There was no pre-incubation of the test compounds with the enzyme/substrate mixture prior to ATP addition. For IC50 calculation, data were analyzed using XLFit version 5.3.

EGFR^L858R/T790M = target: T8, EGFR^L858R/T790M (Homo sapiens, UniProt P00533, L858R/T790M); experiment: EGFR kinase inhibition assay (HTRF); format: biochemical; conditions: 30 μmol/L ATP, no pre-incubation, n = 3
T8 construct: with amino acids 696-end containing the mutations T790M and L858R; GST (N); purchased Millipore
Protocol: as §5

EGFR^d746–750 = EGFR^d746–750 (Homo sapiens, UniProt P00533, DEL746-750); experiment: EGFR kinase inhibition assay (HTRF); format: biochemical; conditions: 30 μmol/L ATP, no pre-incubation, n = 3
Protocol: as §5

EGFR^WT = EGFR^WT (Homo sapiens, UniProt P00533); experiment: EGFR kinase inhibition assay (HTRF); format: biochemical; conditions: 30 μmol/L ATP, no pre-incubation, n = 3
Protocol: as §5

EGFR^L858R = EGFR^L858R (Homo sapiens, UniProt P00533, L858R); experiment: EGFR kinase inhibition assay (HTRF); format: biochemical; conditions: 30 μmol/L ATP, no pre-incubation, n = 3
Protocol: as §5

EGFR^L861Q = EGFR^L861Q (Homo sapiens, UniProt P00533, L861Q); experiment: EGFR kinase inhibition assay (HTRF); format: biochemical; conditions: 30 μmol/L ATP, no pre-incubation, n = 3
Protocol: as §5

[2] = test system: EGFR phosphorylation in NCI-H1975 cells; experiment: Phosphorylation of EGFR assay after wash-out; format: cell-based, human; conditions: 0.1 μmol/L for 2 h, then washed out
Protocol: (§6) Cells (NCI-H1975/PC-9/[…]) were seeded into a 384-well plate (10,000 cells/well), grown for 24 h, and then treated with 0.1 μmol/L of test compounds for 2 h. Cells were washed with fresh medium once. Then, 50 μl of medium was added in each well and the plate was cultured in an incubator for 0, 1, 2, 6 and 24 h. Cells were washed with ice-cold Hanks Balanced Salt Solution (HBSS) before extraction with 25 μl cell lysis buffer. The phosphorylation levels of EGFR were measured as described above.

[3] = test system: EGFR phosphorylation in PC-9 cells; experiment: Phosphorylation of EGFR assay after wash-out; format: cell-based, human; conditions: 0.1 μmol/L for 2 h, then washed out
Protocol: as §6

Structure (SMILES) | IC50 [1] [nM] | IC50 (A431 (EGFR^WT)) [nM] | inhibition at 1 µM (MLCK(h)) [%] | IC50 (MLCK(h)) [nM] | inhibition at 1 µM (Mnk2(h)) [%] | IC50 (Mnk2(h)) [nM] | inhibition at 1 µM (IGF-1R(h), activated) [%] | IC50 (IGF-1R(h), activated) [nM] | inhibition at 1 µM (Fes(h)) [%] | IC50 (Fes(h)) [nM] | inhibition at 1 µM (Flt4(h)) [%] | IC50 (Flt4(h)) [nM] | inhibition at 1 µM (Itk(h)) [%] | IC50 (Itk(h)) [nM] | inhibition at 1 µM (LOK(h)) [%] | IC50 (LOK(h)) [nM] | IC50 (EGFR^d746–750/T790M) [nM] | IC50 (EGFR^L858R/T790M) [nM] | IC50 (EGFR^d746–750) [nM] | IC50 (EGFR^WT) [nM] | further results
C=CC(=O)Nc1cc(Nc2nccc(-c3c4n(c5ccccc35)CCCC4)n2)c(OC)cc1N(C)CCNC [Imp3] | 6.56 ± 1.43 | 704 ± 92.5 | 68 | 597 | 69 | 22 | 64 | 709 | 74 | 309 | 96 | 104 | 68 | 825 | 72 | 593 | 1.1 | 1 | 1.7 | 144 | IC50 (EGFR^L858R): 6 nM; IC50 (EGFR^L861Q): 32 nM; duration of continued inhibition of EGFR phosphorylation after wash-out [2]: at least 6 h; duration of continued inhibition of EGFR phosphorylation after wash-out [3]: at least 6 h
C=CC(=O)Nc1cc(Nc2nccc(-c3c4n(c5ccccc35)CCCC4)n2)c(OC)cc1N(C)CCN(C)C [SH-1028] | 3.93 ± 1.12 | 779 ± 135 | 55 | 400 | 63 | 23 | 46 | 499 | 46 | 557 | 92 | 62 | 66 | 320 | 24 | 1950 | 0.89 | 0.1 | 1.4 | 18 | IC50 (EGFR^L858R): 0.7 nM; IC50 (EGFR^L861Q): 4 nM; duration of continued inhibition of EGFR phosphorylation after wash-out [2]: at least 6 h; duration of continued inhibition of EGFR phosphorylation after wash-out [3]: at least 6 h
